Experimental findings from the supplement of paper PMC7224384 are described below.

Test [1] relates to MDA-MB-453. Briefly: drug sensitivity score (DSS), single agent (DSS (weighted AUC score)); higher = more sensitive (stronger viability decrease); extreme values may be limits of the assay. The conditions noted are these: BLU9931 0 nM; 72 h. In short, it runs like this:
(§1)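 Each 384-well plate held compounds from the FIMM Oncology set, predispensed in singlicate at five 10-fold dilutions spanning a 10,000-fold range, and each well then received 2000 MDA-MB-453 cells in medium with or without an FGFR4 inhibitor at 100 nM final. Plates stayed at 37 °C, 5% CO2 for 72 h, after which cellular ATP was measured with CellTiterGlo 2.0. Readings were converted per plate into percent viability against control wells, and the drug sensitivity score was taken as a weighted area under a four-parameter logistic fit.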

The subject of test [2] is MDA-MB-453. Nature of the test: drug sensitivity score (DSS), in combination with BLU9931 (DSS (weighted AUC score)); higher = more sensitive (stronger viability decrease); extreme values may be limits of the assay. The following applies: BLU9931 100 nM; 72 h. The procedure, abridged:
as §1

On to `Cc1[nH]nc(C(F)(F)F)c1Cc1sc2c(c1C(=O)N1C[C@](C)(O)CO1)c(=O)n(C)c(=O)n2C(C)C` [AZD3965], for which the drug sensitivity score in the test with MDA-MB-453 [1] and with MDA-MB-453 [2] was 0 each time.

On to `COc1cc(CCc2cc(NC(=O)c3ccc(N4CC(C)NC(C)C4)cc3)n[nH]2)cc(OC)c1` (stereo not given) [AZD4547], for which the drug sensitivity score in the test with MDA-MB-453 [1] amounted to 0.3; in the test with MDA-MB-453 [2], 0.

On to `C[C@@H]1COCCN1c1cc(C2([S@](C)(=N)=O)CC2)nc(-c2cc[nH]c3nccc2-3)n1` [AZD6738], for which the drug sensitivity score in the test with MDA-MB-453 [1] came to 11; in the test on MDA-MB-453 [2], 10.7.

Consider `CN(C)C(=O)c1ccc(S(=O)(=O)c2ccc(NC(=O)[C@@](C)(O)C(F)(F)F)c(Cl)c2)cc1` [AZD7545], for which the values for the drug sensitivity score in the test with MDA-MB-453 [1] and with MDA-MB-453 [2] were 0.1 and 0.2, respectively.

Turning to `NC(=O)Nc1cc(-c2cccc(F)c2)sc1C(=O)N[C@H]1CCCNC1` [AZD7762], the drug sensitivity score with MDA-MB-453 [1] stood at 5; in the test with MDA-MB-453 [2], 4.

For `COc1ccc(-c2ccc3c(N4CCOC[C@@H]4C)nc(N4CCOC[C@@H]4C)nc3n2)cc1CO` [AZD8055], the drug sensitivity score turned out to be 24.3 in the test on MDA-MB-453 [1] and 23.3 in the test with MDA-MB-453 [2].

With `N#Cc1ccc2[nH]c(O)c(-c3ccc(CN4CCOCC4)cn3)c2c1` [AZD-1080], the drug sensitivity score in the test on MDA-MB-453 [1] and in the test on MDA-MB-453 [2] was 0 in each case.

Take `Cc1ncc(-c2ccnc(Nc3ccc(S(C)(=O)=O)cc3)n2)n1C(C)C` [AZD-5438]: the drug sensitivity score with MDA-MB-453 [1] turned out to be 6.1; in the test on MDA-MB-453 [2] it was 7.9.

Take `Cc1cc([C@@H](C)Nc2ccccc2C(=O)O)c2nc(N3CCOCC3)cc(=O)n2c1` [AZD-6482]: the drug sensitivity score in the test with MDA-MB-453 [1] stood at 7.5; in the test on MDA-MB-453 [2], 7.4.

For the compound `C[C@@H](Nc1cc(F)cc(F)c1)c1cc(C(=O)N(C)C)cc2c(=O)cc(N3CCOCC3)oc12` [AZD-8186], the figures for the drug sensitivity score with MDA-MB-453 [1] and with MDA-MB-453 [2] were 1.7 and 2.3, respectively.

Take `CCN1CCN(Cc2ccc(Nc3ncc(F)c(-c4cc(F)c5nc(C)n(C(C)C)c5c4)n3)nc2)CC1` [Abemaciclib]: the drug sensitivity score was determined as 4.1 in the test on MDA-MB-453 [1] and 7.8 in the test with MDA-MB-453 [2].

In the case of `CN(C)Cc1c(C(=O)NCCOc2ccc(C(=O)NO)cc2)oc2ccccc12` [Abexinostat], the drug sensitivity score with MDA-MB-453 [1] was found to be 22.6; in the test with MDA-MB-453 [2], 22.3.

Consider `C[C@]12CC[C@H](O)CC1=CC[C@@H]1[C@@H]2CC[C@]2(C)C(c3cccnc3)=CC[C@@H]12` [Abiraterone], for which the drug sensitivity score with MDA-MB-453 [1] and in the test on MDA-MB-453 [2] was 0 throughout.

Regarding `CC#CC(=O)N1CCC[C@H]1c1nc(-c2ccc(C(=O)Nc3ccccn3)cc2)c2c(N)nccn12` [Acalabrutinib], the drug sensitivity score is 4.2 with MDA-MB-453 [1] and 2.4 with MDA-MB-453 [2].

`COc1cc(C)c(/C=C/C(C)=C/C=C/C(C)=C/C(=O)O)c(C)c1C` [Acitretin]: the results for the drug sensitivity score in the test with MDA-MB-453 [1] and in the test on MDA-MB-453 [2] were 0.2 and 0, respectively.

In the case of `CN(C)C/C=C/C(=O)Nc1cc2c(Nc3ccc(F)c(Cl)c3)ncnc2cc1O[C@H]1CCOC1` [Afatinib], the drug sensitivity score with MDA-MB-453 [1] turned out to be 6.2; in the test with MDA-MB-453 [2], 10.1.

In the case of `Cn1ncc(Cl)c1-c1cc(C(=O)N[C@H](CN)Cc2cccc(F)c2)sc1Cl` [Afuresertib], the drug sensitivity score in the test on MDA-MB-453 [1] stood at 7.9; with MDA-MB-453 [2], 8.4.

Take `COc1cccc2c1C(=O)c1c(O)c3c(c(O)c1C2=O)C[C@@](O)(/C(CO)=N/NC(=O)CCCCCN1C(=O)C=CC1=O)C[C@@H]3O[C@H]1C[C@H](N)[C@H](O)[C@H](C)O1` [Aldoxorubicin]: the drug sensitivity score in the test on MDA-MB-453 [1] worked out at 5.8; in the test with MDA-MB-453 [2], 5.4.

Consider `CCc1cc2c(cc1N1CCC(N3CCOCC3)CC1)C(C)(C)c1[nH]c3cc(C#N)ccc3c1C2=O` [Alectinib], for which the drug sensitivity score in the test with MDA-MB-453 [1] worked out at 0.9; in the test on MDA-MB-453 [2] it was 0.

For the compound `COc1cc(Nc2ncc3c(n2)-c2ccc(Cl)cc2C(c2c(F)cccc2OC)=NC3)ccc1C(=O)O` [Alisertib], the results for the drug sensitivity score with MDA-MB-453 [1] and in the test on MDA-MB-453 [2] were 0 and 1.7, respectively.
